Measurements published in publication PMC10677270, “2554. What’s Weight Got to Do with It? Prospective Pharmacokinetic/Pharmacodynamic Evaluation of Fixed-Dose Daptomycin” (Open Forum Infectious Diseases, 2023).

Test: Steady-state pharmacokinetic/pharmacodynamic evaluation of fixed-dose (750 mg) daptomycin in patients with Staphylococcus aureus infections
Protocol: This study evaluated systemic exposure of a fixed dose (750 mg) of DAP in patients with Staphylococcus aureus infections. Methods Adult non-ICU patients with CrCl ≥ 30 mL/min admitted to our academic medical center warranting DAP for a S. aureus infection were eligible for enrollment. DAP 750 mg was infused over 30 minutes every 24 hours. At steady state, concentrations were obtained pre-dose (0.5 hours) and 1, 12, and 24 hours after the start of infusion. Concentrations were measured using a validated LC-MS assay. Pharmacokinetic (PK) analysis was performed using first-order equations and stratified by weight: low (< 65 kg), normal (65-85 kg), and high ( > 85 kg). Therapeutic AUC24 (≥ 666 mg*hr/L) and elevated trough (Cmin > 24.3 mg/L) were the efficacy and safety targets, respectively.

In the case of `CCCCCCCCCC(=O)N[C@@H](Cc1c[nH]c2ccccc12)C(=O)N[C@H](CC(N)=O)C(=O)N[C@@H](CC(=O)O)C(=O)N[C@@H]1C(=O)NCC(=O)N[C@@H](CCCN)C(=O)N[C@@H](CC(=O)O)C(=O)N[C@H](C)C(=O)N[C@@H](CC(=O)O)C(=O)NCC(=O)N[C@H](CO)C(=O)N[C@@H]([C@H](C)CC(=O)O)C(=O)N[C@@H](CC(=O)c2ccccc2N)C(=O)O[C@@H]1C` [DAP, daptomycin], the Ke (all patients n=22, DAP 750 mg infused over 30 min every 24 h, LC-MS, first-order equations, median, IQR [0.046, 0.098]) is reported as 0.078 h⁻¹, the Cmin (all patients n=22, DAP 750 mg infused over 30 min every 24 h, LC-MS, median, IQR [7.3, 29.9]) is reported as 10500 ng/mL and the “Therapeutic AUC24 (>= 666 mg*hr/L) achieved, share of patients” value (“Therapeutic AUC24” for short) (all patients, 14/22, DAP 750 mg every 24 h, efficacy target) is reported as 64%. For the same compound, the “Therapeutic AUC24” value (females n=12, DAP 750 mg every 24 h) was 83% and the “Therapeutic AUC24” value (males n=10, DAP 750 mg every 24 h) was 40%.
